{
  "source": "paper PMC5428509",
  "about": "“Irreversible inhibition of BTK kinase by a novel highly selective inhibitor CHMFL-BTK-11 suppresses inflammatory response in rheumatoid arthritis model” (Scientific Reports, 2017)",
  "assay_in_all_cases": "biochemical",
  "parameters_in_all_cases": "KinomeScan competition binding panel (DiscoveRx), percent of control at 1 uM",
  "conditions_in_all_cases": "read-out: Percent Control",
  "key": {"p38-delta": {"molecular_target": "T1, p38-delta (Homo sapiens, UniProt O15264)", "T1 construct": "gene MAPK13", "how_it_was_run": "(§1)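 Selectivity profiled across 456 kinases/mutants by KinomeScan binding technology.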"}, "S6K1": {"molecular_target": "T2, S6K1 (Homo sapiens, UniProt P23443)", "T2 construct": "gene RPS6KB1", "how_it_was_run": "as §1"}, "GSK3A": {"molecular_target": "GSK3A (Homo sapiens, UniProt P49840)", "how_it_was_run": "as §1"}, "MAPKAPK5": {"molecular_target": "MAPKAPK5 (Homo sapiens, UniProt Q8IW41)", "sequence (Q8IW41 whole entry)": "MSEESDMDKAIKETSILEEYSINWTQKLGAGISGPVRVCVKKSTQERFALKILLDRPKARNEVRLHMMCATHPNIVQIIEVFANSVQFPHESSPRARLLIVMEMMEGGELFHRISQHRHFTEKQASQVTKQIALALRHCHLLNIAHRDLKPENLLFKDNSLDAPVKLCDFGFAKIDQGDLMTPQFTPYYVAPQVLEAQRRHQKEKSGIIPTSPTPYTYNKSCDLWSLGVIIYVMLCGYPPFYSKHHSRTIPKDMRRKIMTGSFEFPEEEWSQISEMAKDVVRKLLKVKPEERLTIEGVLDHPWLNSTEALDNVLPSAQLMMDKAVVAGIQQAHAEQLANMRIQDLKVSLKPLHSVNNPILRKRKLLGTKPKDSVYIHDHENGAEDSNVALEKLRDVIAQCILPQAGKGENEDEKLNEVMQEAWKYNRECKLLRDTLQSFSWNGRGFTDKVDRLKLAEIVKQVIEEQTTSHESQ", "how_it_was_run": "as §1"}, "MST3": {"molecular_target": "T3, MST3 (Homo sapiens, UniProt Q9Y6E0)", "T3 construct": "gene STK24", "how_it_was_run": "as §1"}, "ERK2": {"molecular_target": "T4, ERK2 (Homo sapiens, UniProt P28482)", "T4 construct": "gene MAPK1", "how_it_was_run": "as §1"}, "PFTAIRE2": {"molecular_target": "T5, PFTAIRE2 (Homo sapiens, UniProt Q96Q40)", "T5 construct": "gene CDK15", "how_it_was_run": "as §1"}, "PCTK2": {"molecular_target": "T6, PCTK2 (Homo sapiens, UniProt Q00537)", "T6 construct": "gene CDK17", "how_it_was_run": "as §1"}, "PDGFRB": {"molecular_target": "PDGFRB (Homo sapiens, UniProt P09619)", "sequence (P09619 whole entry)": "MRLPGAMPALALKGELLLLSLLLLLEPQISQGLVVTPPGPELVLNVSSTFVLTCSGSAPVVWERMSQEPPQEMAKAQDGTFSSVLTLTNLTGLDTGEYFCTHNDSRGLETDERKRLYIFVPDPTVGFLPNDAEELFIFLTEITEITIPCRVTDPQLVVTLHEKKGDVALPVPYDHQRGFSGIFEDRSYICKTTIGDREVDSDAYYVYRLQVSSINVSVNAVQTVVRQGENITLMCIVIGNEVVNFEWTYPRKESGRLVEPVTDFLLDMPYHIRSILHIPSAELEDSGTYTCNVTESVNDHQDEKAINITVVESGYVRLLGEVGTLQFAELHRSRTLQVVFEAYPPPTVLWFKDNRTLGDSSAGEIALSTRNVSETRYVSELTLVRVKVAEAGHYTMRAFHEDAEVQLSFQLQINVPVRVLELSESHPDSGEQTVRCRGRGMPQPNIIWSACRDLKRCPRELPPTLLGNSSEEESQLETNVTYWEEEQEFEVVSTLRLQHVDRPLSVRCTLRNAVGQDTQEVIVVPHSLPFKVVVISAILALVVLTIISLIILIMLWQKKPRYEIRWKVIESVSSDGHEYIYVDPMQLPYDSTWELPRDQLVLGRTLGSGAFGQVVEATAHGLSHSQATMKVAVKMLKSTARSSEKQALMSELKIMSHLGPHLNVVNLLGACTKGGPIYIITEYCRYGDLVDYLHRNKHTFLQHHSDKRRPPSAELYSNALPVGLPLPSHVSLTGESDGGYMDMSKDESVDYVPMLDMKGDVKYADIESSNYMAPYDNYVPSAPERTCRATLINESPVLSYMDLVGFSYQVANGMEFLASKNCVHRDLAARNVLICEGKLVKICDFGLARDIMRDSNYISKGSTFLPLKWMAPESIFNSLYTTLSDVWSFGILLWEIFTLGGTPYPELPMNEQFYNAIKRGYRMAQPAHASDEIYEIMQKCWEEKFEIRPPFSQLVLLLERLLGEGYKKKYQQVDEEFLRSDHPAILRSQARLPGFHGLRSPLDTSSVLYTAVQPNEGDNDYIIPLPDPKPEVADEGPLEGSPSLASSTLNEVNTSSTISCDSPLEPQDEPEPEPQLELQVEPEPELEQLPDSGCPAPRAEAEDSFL", "how_it_was_run": "as §1"}, "IKK-epsilon": {"molecular_target": "T7, IKK-epsilon (Homo sapiens, UniProt Q14164)", "T7 construct": "gene IKBKE", "how_it_was_run": "as §1"}, "ADCK4": {"molecular_target": "T8, ADCK4 (Homo sapiens, UniProt Q96D53)", "T8 construct": "gene COQ8B", "how_it_was_run": "as §1"}, "PRKR": {"molecular_target": "T9, PRKR (Homo sapiens, UniProt P19525)", "T9 construct": "gene EIF2AK2", "how_it_was_run": "as §1"}, "NEK4": {"molecular_target": "NEK4 (Homo sapiens, UniProt P51957)", "how_it_was_run": "as §1"}, "PRKCH": {"molecular_target": "PRKCH (Homo sapiens, UniProt P24723)", "how_it_was_run": "as §1"}, "SNRK": {"molecular_target": "SNRK (Homo sapiens, UniProt Q9NRH2)", "how_it_was_run": "as §1"}, "BRSK2": {"molecular_target": "BRSK2 (Homo sapiens, UniProt Q8IWQ3)", "sequence (Q8IWQ3 whole entry)": "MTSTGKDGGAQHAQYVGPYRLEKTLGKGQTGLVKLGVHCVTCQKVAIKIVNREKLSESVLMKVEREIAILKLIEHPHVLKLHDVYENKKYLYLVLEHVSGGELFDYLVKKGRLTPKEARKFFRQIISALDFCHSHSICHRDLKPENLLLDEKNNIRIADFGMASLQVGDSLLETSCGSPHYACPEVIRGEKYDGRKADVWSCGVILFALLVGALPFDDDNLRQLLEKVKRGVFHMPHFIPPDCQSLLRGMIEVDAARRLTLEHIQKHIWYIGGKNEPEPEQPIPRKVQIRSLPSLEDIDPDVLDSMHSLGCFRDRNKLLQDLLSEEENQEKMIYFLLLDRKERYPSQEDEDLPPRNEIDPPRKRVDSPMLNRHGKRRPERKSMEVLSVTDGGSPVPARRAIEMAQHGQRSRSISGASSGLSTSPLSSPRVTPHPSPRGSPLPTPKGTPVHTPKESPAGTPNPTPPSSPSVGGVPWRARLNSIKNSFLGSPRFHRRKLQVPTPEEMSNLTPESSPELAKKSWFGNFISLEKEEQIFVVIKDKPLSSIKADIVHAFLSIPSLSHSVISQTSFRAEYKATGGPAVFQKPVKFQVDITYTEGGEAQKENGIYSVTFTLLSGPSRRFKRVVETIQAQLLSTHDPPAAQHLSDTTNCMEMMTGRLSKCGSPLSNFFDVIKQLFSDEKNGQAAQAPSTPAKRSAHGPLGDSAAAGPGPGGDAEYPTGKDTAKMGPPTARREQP", "how_it_was_run": "as §1"}, "[1]": {"molecular_target": "T10, JAK2(JH1domain-catalytic) (Homo sapiens, UniProt O60674)", "T10 construct": "JH1domain-catalytic", "how_it_was_run": "as §1"}, "JNK3": {"molecular_target": "T11, JNK3 (Homo sapiens, UniProt P53779)", "T11 construct": "gene MAPK10", "how_it_was_run": "as §1"}, "CDK4-cyclinD1": {"molecular_target": "T12, CDK4-cyclinD1 (Homo sapiens, UniProt P11802)", "T12 construct": "cyclinD1", "how_it_was_run": "as §1"}, "TAOK1": {"molecular_target": "TAOK1 (Homo sapiens, UniProt Q7L7X3)", "sequence (Q7L7X3 whole entry)": "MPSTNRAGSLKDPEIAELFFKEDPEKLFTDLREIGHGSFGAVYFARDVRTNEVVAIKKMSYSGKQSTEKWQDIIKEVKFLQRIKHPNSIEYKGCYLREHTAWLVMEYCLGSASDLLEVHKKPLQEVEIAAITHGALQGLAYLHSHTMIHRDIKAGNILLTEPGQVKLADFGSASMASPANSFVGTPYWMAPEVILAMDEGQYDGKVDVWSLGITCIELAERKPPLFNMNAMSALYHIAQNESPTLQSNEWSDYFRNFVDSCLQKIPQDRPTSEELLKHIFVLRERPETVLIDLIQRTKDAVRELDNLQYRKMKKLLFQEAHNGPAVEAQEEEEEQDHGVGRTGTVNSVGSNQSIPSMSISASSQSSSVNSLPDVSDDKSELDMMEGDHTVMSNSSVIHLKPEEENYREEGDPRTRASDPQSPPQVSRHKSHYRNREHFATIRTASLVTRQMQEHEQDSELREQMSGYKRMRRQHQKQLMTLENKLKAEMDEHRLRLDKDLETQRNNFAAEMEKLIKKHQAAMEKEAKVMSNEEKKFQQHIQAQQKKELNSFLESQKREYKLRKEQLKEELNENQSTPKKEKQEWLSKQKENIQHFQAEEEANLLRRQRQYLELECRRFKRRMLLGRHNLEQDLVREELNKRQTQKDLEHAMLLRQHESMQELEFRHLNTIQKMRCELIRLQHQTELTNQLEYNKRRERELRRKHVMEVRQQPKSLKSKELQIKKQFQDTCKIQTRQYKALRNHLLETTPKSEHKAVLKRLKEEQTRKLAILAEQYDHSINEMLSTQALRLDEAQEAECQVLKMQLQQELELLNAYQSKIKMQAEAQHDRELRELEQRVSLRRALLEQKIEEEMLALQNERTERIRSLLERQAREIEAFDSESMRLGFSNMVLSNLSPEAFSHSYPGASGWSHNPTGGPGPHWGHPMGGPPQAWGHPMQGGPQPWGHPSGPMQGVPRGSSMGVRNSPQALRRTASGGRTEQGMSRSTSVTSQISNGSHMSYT", "how_it_was_run": "as §1"}, "LTK": {"molecular_target": "LTK (Homo sapiens, UniProt P29376)", "sequence (P29376 whole entry)": "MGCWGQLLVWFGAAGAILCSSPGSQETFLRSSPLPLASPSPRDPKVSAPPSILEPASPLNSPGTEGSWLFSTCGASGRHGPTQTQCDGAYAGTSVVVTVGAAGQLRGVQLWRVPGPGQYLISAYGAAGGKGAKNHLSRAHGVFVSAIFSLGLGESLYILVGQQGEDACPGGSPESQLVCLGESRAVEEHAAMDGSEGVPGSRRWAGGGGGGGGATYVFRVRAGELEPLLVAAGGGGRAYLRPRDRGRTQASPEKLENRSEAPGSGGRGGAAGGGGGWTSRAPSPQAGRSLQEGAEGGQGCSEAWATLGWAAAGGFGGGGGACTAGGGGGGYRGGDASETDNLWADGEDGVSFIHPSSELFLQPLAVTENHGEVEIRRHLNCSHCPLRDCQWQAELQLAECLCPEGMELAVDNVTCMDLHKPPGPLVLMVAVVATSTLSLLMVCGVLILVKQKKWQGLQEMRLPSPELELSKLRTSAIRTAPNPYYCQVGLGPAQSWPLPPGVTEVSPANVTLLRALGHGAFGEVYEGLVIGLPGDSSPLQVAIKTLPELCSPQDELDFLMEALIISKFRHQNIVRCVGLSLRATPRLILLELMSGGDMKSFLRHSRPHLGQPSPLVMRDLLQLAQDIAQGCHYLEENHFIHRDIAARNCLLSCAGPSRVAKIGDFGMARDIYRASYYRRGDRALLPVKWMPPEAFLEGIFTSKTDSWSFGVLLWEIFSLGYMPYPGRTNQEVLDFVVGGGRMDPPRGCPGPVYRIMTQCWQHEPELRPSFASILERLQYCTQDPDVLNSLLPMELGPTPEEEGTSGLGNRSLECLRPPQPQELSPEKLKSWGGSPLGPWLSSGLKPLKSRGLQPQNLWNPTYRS", "how_it_was_run": "as §1"}, "ACVRL1": {"molecular_target": "ACVRL1 (Homo sapiens, UniProt P37023)", "how_it_was_run": "as §1"}, "[2]": {"molecular_target": "T13, ABL1(T315I)-nonphosphorylated (Homo sapiens, UniProt P00519, T315I)", "T13 construct": "nonphosphorylated", "how_it_was_run": "as §1"}, "RIPK1": {"molecular_target": "RIPK1 (Homo sapiens, UniProt Q13546)", "how_it_was_run": "as §1"}, "STK33": {"molecular_target": "STK33 (Homo sapiens, UniProt Q9BYT3)", "sequence (Q9BYT3 whole entry)": "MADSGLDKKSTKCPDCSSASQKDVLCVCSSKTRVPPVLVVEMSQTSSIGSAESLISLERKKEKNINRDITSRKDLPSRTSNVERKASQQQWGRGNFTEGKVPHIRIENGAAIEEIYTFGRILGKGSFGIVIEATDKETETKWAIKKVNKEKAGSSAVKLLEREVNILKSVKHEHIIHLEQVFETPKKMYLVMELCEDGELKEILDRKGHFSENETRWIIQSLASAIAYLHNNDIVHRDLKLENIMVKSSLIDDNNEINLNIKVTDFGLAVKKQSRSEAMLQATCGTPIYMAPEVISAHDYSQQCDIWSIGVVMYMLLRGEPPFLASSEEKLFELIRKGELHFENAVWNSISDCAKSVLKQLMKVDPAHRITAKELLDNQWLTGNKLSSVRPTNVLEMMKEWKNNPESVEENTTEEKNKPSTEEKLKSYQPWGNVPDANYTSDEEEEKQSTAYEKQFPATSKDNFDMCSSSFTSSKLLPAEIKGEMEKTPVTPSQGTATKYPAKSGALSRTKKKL", "how_it_was_run": "as §1"}},
  "data": [
    {"smiles": "C=CC(=O)Nc1cc(-n2c(=O)ccc3cnc4ccc(-n5cccn5)cc4c32)ccc1C", "note": "[CHMFL-BTK-11]", "values": [
      {"measurement": "remaining binding at 1 µM", "setting": "p38-delta", "value": 96, "unit": "%"},
      {"measurement": "remaining binding at 1 µM", "setting": "S6K1", "value": 100, "unit": "%"},
      {"measurement": "remaining binding at 1 µM", "setting": "GSK3A", "value": 90, "unit": "%"},
      {"measurement": "remaining binding at 1 µM", "setting": "MAPKAPK5", "value": 100, "unit": "%"},
      {"measurement": "remaining binding at 1 µM", "setting": "MST3", "value": 100, "unit": "%"},
      {"measurement": "remaining binding at 1 µM", "setting": "ERK2", "value": 100, "unit": "%"},
      {"measurement": "remaining binding at 1 µM", "setting": "PFTAIRE2", "value": 100, "unit": "%"},
      {"measurement": "remaining binding at 1 µM", "setting": "PCTK2", "value": 94, "unit": "%"},
      {"measurement": "remaining binding at 1 µM", "setting": "PDGFRB", "value": 100, "unit": "%"},
      {"measurement": "remaining binding at 1 µM", "setting": "IKK-epsilon", "value": 96, "unit": "%"},
      {"measurement": "remaining binding at 1 µM", "setting": "ADCK4", "value": 100, "unit": "%"},
      {"measurement": "remaining binding at 1 µM", "setting": "PRKR", "value": 80, "unit": "%"},
      {"measurement": "remaining binding at 1 µM", "setting": "NEK4", "value": 100, "unit": "%"},
      {"measurement": "remaining binding at 1 µM", "setting": "PRKCH", "value": 84, "unit": "%"},
      {"measurement": "remaining binding at 1 µM", "setting": "SNRK", "value": 94, "unit": "%"},
      {"measurement": "remaining binding at 1 µM", "setting": "BRSK2", "value": 86, "unit": "%"},
      {"measurement": "remaining binding at 1 µM", "setting": "[1]", "value": 78, "unit": "%"},
      {"measurement": "remaining binding at 1 µM", "setting": "JNK3", "value": 100, "unit": "%"},
      {"measurement": "remaining binding at 1 µM", "setting": "CDK4-cyclinD1", "value": 97, "unit": "%"},
      {"measurement": "remaining binding at 1 µM", "setting": "TAOK1", "value": 100, "unit": "%"},
      {"measurement": "remaining binding at 1 µM", "setting": "LTK", "value": 100, "unit": "%"},
      {"measurement": "remaining binding at 1 µM", "setting": "ACVRL1", "value": 90, "unit": "%"},
      {"measurement": "remaining binding at 1 µM", "setting": "[2]", "value": 79, "unit": "%"},
      {"measurement": "remaining binding at 1 µM", "setting": "RIPK1", "value": 90, "unit": "%"},
      {"measurement": "remaining binding at 1 µM", "setting": "STK33", "value": 89, "unit": "%"}
    ]}
  ]
}
